Data taken from patent publication US20130217765A1, “MULTIFUNCTIONAL NANOCONJUGATES AND USES THEREOF” (priority 2012, published 2013).

Tests used:
HeLa cells = assay: Duration of light exposure on HeLa cells treated with dye-modified TiO2 nanoparticles; format: cell-based; settings: dark or 30 minutes of 750 W halogen visible light, fixed 24 hours post exposure
Protocol: In this Example, we tested the duration of light exposure on cells treated with dye-modified TiO2 nanoparticles. […] Cells were fixed in 4% formaldehyde 24 hours post exposure and 1 μm slices fluorescence confocal images are presented. […] The cellular response is heterogeneous.

plasmid DNA = assay: Plasmid DNA nicking by agarose gel electrophoresis after light exposure; format: biochemical; settings: visible light, 150 W halogen bulb, 10 min
Protocol: The effect of visible light activated ARS-coated TiO2 nanoparticles was assessed by illuminating plasmid containing samples with a Fiber-Lite MI-150High Intensity Fiber Optic EKE 150 W21VHalogen Light Illuminator (Dolan-Jenner Industries, Boxborough, Mass., USA) for 10 min. […] All samples were then run on a 1.25% agarose gel at 60V for 4 h, stained with GelStar (Lonza, Mapleton, Ill., USA), and imaged on a Kodak Gel Logic 2200 Imaging System (Kodak, Rochester, N.Y., USA).
Considering these factors, we sought to determine the effect of visible light activated ARS-coated TiO2 nanoparticles on plasmid DNA integrity using a standard agarose gel electrophoresis technique developed by others. According to this assay, nicked (single-stranded DNA break), linear (double-stranded DNA break), and supercoiled (undamaged) plasmid DNA can be distinguished on an agarose gel by viewing differences in mobility (with the nicked plasmid DNA migrating at the slowest rate and supercoiled plasmid DNA migrating at the fastest rate) [13,15]. Samples were prepared that contained plasmid DNA and either (1) dH2O, (2) ARS, (3) TiO2 nanoparticles, or (4) ARS-coated TiO2 nanoparticles. […]

[1] = system: kanamycin-resistant E. coli; assay: Bacterial assay: incubation with samples, halogen light, plating on kanamycin LB agar; format: cell-based; settings: incubated 10 minutes, 150 W halogen bulb 10 minutes, plated overnight at 37° C.
Protocol: When using dye-coated TiO2 nanoconjugates to inflict damage on bacteria, the dye alizarin red s was used (FIG. 24). The following protocol was used: a bacterial culture of kanamycin-resistant E. coli was grown overnight at 37° C. at 250 rpm and then stored at 4° C. for later use in the experiment. Aliquots of the starter bacterial culture were then incubated with either (1) dH2O, (2) alizarin red s, (3) 6 nm TiO2 nanoparticles, or (4) alizarin red s-coated-6 nm TiO2 nanoconjugates for 10 minutes. All samples were then exposed to a 150 W halogen bulb for 10 minutes and plated on kanamycin-containing LB agar plates, incubated overnight at 37° C., and photographed with a digital camera.

emerin = assay: Emerin integrity and distribution in HeLa cells, fluorescence confocal microscopy; format: cell-based; settings: regardless of light treatment
Protocol: (§1) HeLa cells were grown on #1 glass coverslips to approximately 20% confluence and then exposed to ARS-coated TiO2 nanoparticles or appropriate controls overnight. Respective samples were either exposed to no light or light with a Fiber-Lite MI-150 High Intensity Fiber Optic 150 W Halogen Light Illuminator for 10 min. All samples were fixed in 3.6% formaldehyde (Fisher Scientific, Waltham, Mass., USA) and permeabilized in 0.2% Triton-100× (Fisher Scientific) for 10 min. Cells were then stained with either a mouse monoclonal to emerin primary antibody (Abcam, Cambridge, Mass., USA) followed by an Alexa488 goat anti-mouse IgG (H+L) secondary antibody (Invitrogen, Grand Island, N.Y., USA) or a chicken polyclonal to lamin B1 primary antibody (Abcam) followed by an Alexa488 goat anti-chicken IgG (H+L) secondary antibody (Invitrogen). All samples were then stained with Hoechst 33342 (Sigma) and coverslips were mounted in P-phenylenediamine containing mounting media. Samples were imaged on an Olympus IX81-UCB Spinning Disc Confocal Microscope (Olympus, Center Valley, Pa., USA) using a 100 W mercury burner (Ushio, Tokyo, Japan), Brightline filters for DAPI, FITC, and TEXAS RED (Semrock, Rochester, N.Y., USA), and an ORCA-ER-1394 high-resolution digital camera (Hamamatsu, Japan). All images are presented as […] optical slice fluorescence overlays in either two or three dimensions. […]

lamin B1 = assay: Lamin B1 integrity and distribution in HeLa cells, fluorescence confocal microscopy; format: cell-based; settings: light or no light
Protocol: as §1

Row | Molecule | cellular responses (HeLa cells) | nicking of plasmid DNA (plasmid DNA) | bacterial growth (colonies on plate) [1] | emerin integrity and distribution (emerin) | lamin B1 integrity and distribution (lamin B1)
1 | alizarin blue black b [ABBB] | no detectable cellular responses |  |  |  | 
2 | O=C1c2ccccc2C(=O)c2c1cc(S(=O)(=O)[O-])c(O)c2O.[Na+] [ARS, alizarin red s] |  | slight expected increase in nicked plasmid DNA | bacterial colonies are witnessed | normal emerin integrity and distribution | normal lamin B1 integrity and distribution
